Consider 17 compounds from patent publication US10744150B2, “Cyclic dinucleotides as anticancer agents” (BRISTOL-MYERS SQUIBB COMPANY, priority 2017, dated 2020).

One test has as its system IRF3. The test is described as follows: STING THP1 reporter assay, IRF pathway (secreted luciferase Lucia, QUANTI-Luc). The test is classed as cell-based. As to conditions: THP1-Dual cells, 10% human plasma, 100% activation = 100 μM cGAMP, luciferase readout, read-out: THP1 Reporter Assays EC50 IRF3. An excerpt:
(§1) THP1-Dual™ cells were derived from the human THP-1 monocyte cell line by stable integration of two inducible reporter constructs. To this end, THP1-Dual™ cells allow the simultaneous study of the NF-κB pathway, by monitoring the activity of SEAP, and the IRF pathway by assessing the activity of a secreted luciferase (Lucia). Both reporter proteins are readily measurable in the cell culture supernatant when using QUANTI-Blue™, a SEAP detection reagent, and QUANTI-Luc™, a luciferase detection reagent.
(§2) THP1-Dual™ cells induce the activation of NF-κB in response to STING agonists. They also trigger the IRF pathway upon stimulation with STING agonists, such as cGAMP. Here, the THP-1-Dual cells were used to assess STING binders for function on the cellular level.
(§3) Serial dilutions of compounds in DMSO were added to low volume 384 well plates at 100 nl/well using an ECHO acoustic dispenser (Labcyte, model 550) to achieve final starting concentration of 100 μM in cell suspension. THP-1 Dual™ STING reporter cells (Invivogen, Dual cells cat # THPD-nfis) were added to the plates with compounds at 15,000 cells in 10 μL per well in RPMI media (Gibco, cat #11875) containing 10% human plasma in a low volume 384-well black wall clear bottom tissue culture plate (Corning, cat #3542) for SEAP assay and low volume solid white plate (Corning, cat #3826) for luciferase assay. One column of the plate was reserved for treatment with cGAMP at 100 μM for 100% activation calculation and one column for no treatment (DMSO only) for baseline activation. Plates were then incubated in 37° C. incubator at 5% CO2 for 20 hours.
(§4) In the SEAP assay, 5 μl of 2× QuantiBlue (Invivogen, cat # Rep-qb2) is added to 384 well black plates seeded with THP1 cells and incubated at 37° C. for 2 hours. Plates were read on the Envision (Perkin Elmer) at 620 nm wavelength (OD620). In the luciferase assay, 5 μl of Quantiluc (Invivogen, Rep-qlc2) is added to white 384 well plates seeded with THP1 cells and read at 5 minutes on the Envision (Perkin Elmer) using a luminescence protocol (RLU). For both cell lines, 100% activation was determined by value (RLU) of THP-1 Dual STING cells stimulated with 100 μM cGAMP (Invivogen, cat # TLRL-NACGA23-5).

Another test concerns NFkB. The test is described as follows: STING THP1 reporter assay, NF-κB pathway (SEAP, QUANTI-Blue). The test is classed as cell-based. As to conditions: THP1-Dual cells, 10% human plasma, 100% activation = 100 μM cGAMP.
Text: as §1, §2, §3, §4
In general terms: Reporter assays use an easily measured gene product as a stand-in for the process of interest.

Test [1] addresses T1, STING WT: His-TVMV-S-hSTING(155-341)-H232R (Homo sapiens, UniProt Q86WV6, H232R).
T1 construct: His-TVMV-S-hSTING(155-341)-H232R
The test is described as follows: STING HTRF binding assay (time resolved FRET competition), STING WT. As to conditions: 20 nM His-tagged STING cytoplasmic domain, 200 nM fluorescein-labeled cGAMP analog probe, one hour; read-out: HTRF Binding Assays IC50 STING WT. The method, then: (§5) A time resolved FRET-based competition binding assay was used to assess test article binding to STING WT and STING AQ. His-tagged STING cytoplasmic domain (WT or AQ) at a concentration of 20 nM was incubated with 2.5 nM Tb-labeled anti-His antibody, test compound, and fluorescein-labeled cGAMP analog probe (BioLog cat. no. C195) at a concentration of 200 nM (STING WT) or 40 nM (STING AQ) in PBS containing 0.005% Tween-20 and 0.1% BSA for one hour. Fluorescence at 495 nm and 520 nm was measured using an EnVision microplate reader to quantify FRET between Tb-labeled anti-His antibody and fluorescein-labeled probe. Background was defined as the signal obtained in the absence of STING protein, and background subtracted FRET ratios were normalized to the maximum signal obtained in the absence of test compound. These values were converted to a percent inhibition. Percent inhibition was determined for test compounds at 11 concentrations. The IC50, defined as the concentration of competing test compound needed to reduce specific binding of the probe by 50%, was calculated using the 4 parameter logistic equation to fit the data
(In general: Time-resolved FRET reads energy transfer from a long-lived donor to a nearby acceptor.)

In test [2] the target is T2, STING AQ: His-TVMV-S-hSTING(155-341)-G230A-R293Q (Homo sapiens, UniProt Q86WV6, G230A/H232R/R293Q).
T2 construct: His-TVMV-S-hSTING(155-341)-G230A-R293Q
The test can be described thus: STING HTRF binding assay (time resolved FRET competition), STING AQ. As to conditions: 20 nM His-tagged STING cytoplasmic domain, 40 nM fluorescein-labeled cGAMP analog probe, one hour; read-out: HTRF Binding Assays IC50 STING AQ. The procedure:
as §5

[3] abbreviates: 20 hours, SEAP readout OD620, read-out: THP1 Reporter Assays EC50 NFkB.
The mark [4] stands for this setting: Homo sapiens, THP-1, 20 h, SEAP readout OD620, read-out: THP1 Reporter Assays EC50 NFkB.

In general, EC50 refers to the concentration that produces a half-maximal response. What is called IC50 is the concentration that inhibits the measured activity by half.

Each structure is given as a SMILES string. Like-named read-outs stand apart in the source and are kept apart here. Bounds are passed on as bounds.

T1 sequence (Q86WV6 with tags, fused parts or gaps H232R): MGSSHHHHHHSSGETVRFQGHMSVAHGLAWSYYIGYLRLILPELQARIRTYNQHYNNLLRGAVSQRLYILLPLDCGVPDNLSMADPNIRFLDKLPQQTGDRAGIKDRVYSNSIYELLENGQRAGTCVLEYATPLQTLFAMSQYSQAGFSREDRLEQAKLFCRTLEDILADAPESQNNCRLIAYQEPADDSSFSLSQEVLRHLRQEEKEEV
T2 sequence (Q86WV6 with tags, fused parts or gaps G230A/H232R/R293Q): as the sequence (Q86WV6 with tags, fused parts or gaps H232R) above, with G99A, R162Q counted along it

Regarding `NC(=O)c1cccc2c1nnn2[C@@H]1O[C@@H]2COP(O)(=S)OC[C@@H]3[C@@H](COP(O)(=S)O[C@H]2[C@H]1F)C[C@H]3n1cnc2c(N)ncnc21` (single isomer, unassigned) [Example 12-2], the concentration for a half-maximal effect (EC50) in the test with IRF3 (20 hours) and in the test with NFkB (setting [3]) was over 100 µM each time. Moreover, the half-maximal inhibitory concentration (IC50) in test [1] is over 100 µM; in test [2], 88.7 µM.

Regarding `NC(=O)c1cccc2c1nnn2[C@@H]1O[C@@H]2COP(O)(=S)OC[C@@H]3[C@@H](COP(O)(=S)O[C@H]2[C@H]1F)C[C@H]3n1cnc2c(N)ncnc21` (single isomer, unassigned) [Example 12-3], the EC50 in the test with IRF3 (20 hours) and with NFkB (setting [3]) was over 100 µM in each case. The half-inhibitory concentration (IC50) is over 100 µM in test [1] and 64.4 µM in test [2].

With `NC(=O)c1cccc2c1nnn2[C@@H]1O[C@@H]2COP(O)(=S)OC[C@@H]3[C@@H](COP(O)(=S)O[C@H]2[C@H]1F)C[C@H]3n1cnc2c(N)ncnc21` (single isomer, unassigned) [Example 12-4], the concentration for a half-maximal effect (EC50) in the test with IRF3 (20 hours) and in the test with NFkB (setting [3]) was over 100 µM throughout. Further, the IC50 in test [1] was 22 µM; in test [2], 0.4 µM.

Take `NC(=O)c1cccc2c1nnn2[C@@H]1C[C@@H]2COP(O)(=S)O[C@H]3[C@@H](F)[C@H](n4cnc5c(N)ncnc54)O[C@@H]3COP(O)(=S)OC[C@H]21` (single isomer, unassigned) [Example 13-1]: the concentration for a half-maximal effect (EC50) in the test on IRF3 (Homo sapiens, THP-1, 20 h) was over 100 µM; in the test on NFkB (setting [4]) it was over 100 µM. Further, the figures for the IC50 in test [1] and in test [2] were over 100 µM and 85.1 µM, respectively.

For `NC(=O)c1cccc2c1nnn2[C@@H]1C[C@@H]2COP(O)(=S)O[C@H]3[C@@H](F)[C@H](n4cnc5c(N)ncnc54)O[C@@H]3COP(O)(=S)OC[C@H]21` (single isomer, unassigned) [Example 13-2], the EC50 in the test on IRF3 (20 hours) and in the test with NFkB (setting [3]) was over 100 µM throughout. Further, the 50% inhibitory concentration (IC50) is over 100 µM in test [1] and 3 µM in test [2].

For the compound `NC(=O)c1cccc2c1nnn2[C@@H]1C[C@@H]2COP(O)(=S)O[C@H]3[C@@H](F)[C@H](n4cnc5c(N)ncnc54)O[C@@H]3COP(O)(=S)OC[C@H]21` (single isomer, unassigned) [Example 13-3], the concentration for a half-maximal effect (EC50) in the test with IRF3 (20 hours) and in the test with NFkB (setting [3]) was over 100 µM throughout. The IC50 is over 100 µM in test [1] and 3.8 µM in test [2].

For `NC(=O)c1cccc2c1nnn2[C@@H]1C[C@@H]2COP(O)(=S)O[C@H]3[C@@H](F)[C@H](n4cnc5c(N)ncnc54)O[C@@H]3COP(O)(=S)OC[C@H]21` (single isomer, unassigned) [Example 13-4], the EC50 in the test on IRF3 (20 hours) was 86 µM; with NFkB (setting [3]), over 100 µM. Also, the IC50 in test [1] turned out to be 3 µM; in test [2] it was 0.05 µM.

With `O=c1[nH]c2nccn2c2c1ncn2[C@@H]1O[C@@H]2COP(=O)(S)OC[C@@H]3[C@@H](COP(=O)(S)O[C@@H]1[C@@H]2O)C[C@H]3n1cnc2c(O)ncnc21` (single isomer, unassigned) [Example 14-1], the 50% effective concentration (EC50) is over 100 µM in the test on IRF3 (Homo sapiens, THP-1, 20 h) and over 100 µM with NFkB (setting [4]). Besides, the results for the half-inhibitory concentration (IC50) in test [1] and in test [2] were 83 µM and 4.5 µM, respectively.

On to `O=c1[nH]c2nccn2c2c1ncn2[C@@H]1O[C@@H]2COP(=O)(S)OC[C@@H]3[C@@H](COP(=O)(S)O[C@@H]1[C@@H]2O)C[C@H]3n1cnc2c(O)ncnc21` (single isomer, unassigned) [Example 14-2], for which the EC50 with IRF3 (20 hours) and with NFkB (setting [3]) was over 100 µM throughout. Further, the IC50 worked out at 25.5 µM in test [1] and 5.1 µM in test [2].

`O=c1[nH]c2nccn2c2c1ncn2[C@@H]1O[C@@H]2COP(=O)(S)OC[C@@H]3[C@@H](COP(=O)(S)O[C@@H]1[C@@H]2O)C[C@H]3n1cnc2c(O)ncnc21` (single isomer, unassigned) [Example 14-3]: the concentration giving a half-maximal response (EC50) in the test on IRF3 (20 hours) and in the test on NFkB (setting [3]) was over 100 µM throughout. The IC50 in test [1] was found to be 14.3 µM; in test [2], 1.7 µM.

For `O=c1[nH]c2nccn2c2c1ncn2[C@@H]1O[C@@H]2COP(=O)(S)OC[C@@H]3[C@@H](COP(=O)(S)O[C@@H]1[C@@H]2O)C[C@H]3n1cnc2c(O)ncnc21` (single isomer, unassigned) [Example 14-4], the EC50 with IRF3 (20 hours) and with NFkB (setting [3]) was over 100 µM in each case. In addition, the IC50 in test [1] came to 4.3 µM; in test [2], 0.92 µM.

For `Nc1ncnc2c1ncn2[C@@H]1C[C@@H]2COP(O)(=S)O[C@@H]3[C@H](O)[C@@H](COP(O)(=S)OC[C@H]21)O[C@H]3n1cnc2c(O)nc3nccn3c21` (single isomer, unassigned) [Example 15-1], the 50% effective concentration (EC50) is over 100 µM in the test on IRF3 (Homo sapiens, THP-1, 20 h) and over 100 µM in the test on NFkB (setting [4]). Also, the IC50 in test [1] is 33.5 µM; in test [2], 4.4 µM.

For the compound `Nc1ncnc2c1ncn2[C@@H]1C[C@@H]2COP(O)(=S)O[C@@H]3[C@H](O)[C@@H](COP(O)(=S)OC[C@H]21)O[C@H]3n1cnc2c(O)nc3nccn3c21` (single isomer, unassigned) [Example 15-2], the half-maximal effective concentration (EC50) in the test with IRF3 (20 hours) and with NFkB (setting [3]) was over 100 µM each time. For the same compound, the IC50 in test [1] was found to be 26.9 µM; in test [2] it was 1.8 µM.

With `Nc1ncnc2c1ncn2[C@@H]1C[C@@H]2COP(O)(=S)O[C@@H]3[C@H](O)[C@@H](COP(O)(=S)OC[C@H]21)O[C@H]3n1cnc2c(O)nc3nccn3c21` (single isomer, unassigned) [Example 15-3], the EC50 in the test with IRF3 (20 hours) and in the test on NFkB (setting [3]) was over 100 µM each time. Also, the results for the IC50 in test [1] and in test [2] were 32.6 µM and 1.2 µM, respectively.

For `Nc1ncnc2c1ncn2[C@@H]1C[C@@H]2COP(O)(=S)O[C@@H]3[C@H](O)[C@@H](COP(O)(=S)OC[C@H]21)O[C@H]3n1cnc2c(O)nc3nccn3c21` (single isomer, unassigned) [Example 15-4], the EC50 in the test on IRF3 (20 hours) and in the test with NFkB (setting [3]) was over 100 µM each time. Also, the values for the IC50 in test [1] and in test [2] were 3.9 µM and 0.47 µM, respectively.

For the compound `Nc1ncnc2c1ncn2[C@@H]1C[C@@H]2COP(O)(=S)O[C@H]3[C@H](F)[C@H](n4cnc5c(N)ncnc54)O[C@@H]3COP(O)(=S)OC[C@H]21` (single isomer, unassigned) [Example 17-1], the concentration giving a half-maximal response (EC50) is over 100 µM in the test with IRF3 (Homo sapiens, THP-1, 20 h) and 2 µM in the test on NFkB (setting [3]). Besides, the half-inhibitory concentration (IC50) in test [1] and in test [2] was over 100 µM each time.

For `Nc1ncnc2c1ncn2[C@@H]1C[C@@H]2COP(O)(=S)O[C@H]3[C@H](F)[C@H](n4cnc5c(N)ncnc54)O[C@@H]3COP(O)(=S)OC[C@H]21` (single isomer, unassigned) [Example 17-2], the EC50 with IRF3 (20 hours) and with NFkB (setting [3]) was over 100 µM in each case. The concentration for half-maximal inhibition (IC50) in test [1] was over 100 µM; in test [2], 1.9 µM.
